Read-outs that look alike come from different tables or passages of the source.
Key:
PAMPA-BBB permeability = format: in vitro ADME
From the text: To evaluate the effective permeability (Pe) of the salazinic acid, evernic acid, (−)-usnic acid as pure compounds and from the extracts (P. sulcata acetone extract, E. prunastri acetone extract, C. uncialis acetone extract, respectively), Parallel Artificial Membrane Permeability Assay (PAMPA) for the Blood-Brain Barrier (BBB) was used (Pion Inc., Billerica, MA, USA). The stock solutions of acetone extracts from C. uncialis, E. prunastri and P. sulcata and from (−)-usnic acid, evernic acid, salazinic acid, were prepared with DMSO (the concentrations of salazinic acid, evernic acid, and (−)-usnic acid reached were 2.5 mg/mL for pure compounds and extracts). Next, the donor solution was prepared (5 µL of stock solution/1000 µL of Prisma buffer, pH = 7.4 (Prisma HT, Pion Inc.). Subsequently, each filter membrane of the acceptor plate wells was coated with 5 μL BBB-1 lipid solution (Pion Inc.), and 180 µL of the donor solution was added to the donor wells. The acceptor well was filled with 200 µL BSB (Brain Sink Buffer, Pion Inc.). The plate was incubated for 1 h or 4 h at 37 °C. After incubation, the donor and acceptor concentrations of examined substances were determined using the HPLC. Effective permeability (Pe) of the compounds was calculated by using the following equation. (4) Pe=−ln(1−CA/Ceq)/S×(1/VD+1/VA)×t where Pe is the effective permeability coefficient (cm/s), VD = donor volume, VA = acceptor volume, Ceq = equilibrium concentration and Ceq=CD×VD+CA×VA/VD+VA , S = membrane area, and t = incubation time (in seconds).
Compounds with Pe (× 10^−6 cm/s) > 1.5 are classified as high permeation predicted, while Pe (× 10^−6 cm/s) < 1.5 are classified as low permeation predicted. Samples were analyzed in triplicate and the average is reported.

[1] = target: T1, glutathione peroxidase (GPx) (Bos taurus, UniProt P00435); experiment: Effect on glutathione peroxidase activity; format: biochemical; conditions: for inhibition at 243.9 µg/mL: read-out: GPx Inhibition under Reaction Conditions (%)
T1 construct: purchased Sigma G6137
T1 sequence (P00435 1-205): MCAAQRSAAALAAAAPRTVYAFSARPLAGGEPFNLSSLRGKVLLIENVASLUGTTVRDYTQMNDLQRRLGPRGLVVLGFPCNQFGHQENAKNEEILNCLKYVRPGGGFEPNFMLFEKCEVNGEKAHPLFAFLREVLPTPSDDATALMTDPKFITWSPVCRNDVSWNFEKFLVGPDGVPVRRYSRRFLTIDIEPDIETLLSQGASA
Experimental: Sample (20 µL, 5 mg/mL of pure DMSO) was mixed with 8 μL of EDTA solution, 10 μL of glutathione reductase (0.2 U Sigma G3664), 4 μL of GSH solution, 10 μL of glutathione peroxidase (0.04 U Sigma G6137), 22 μL of H2O2 and 332 μL of 50 mM sodium phosphate, pH 7.0). To start the reaction, 4 μL of NADPH solution (N5130) was added and the decrease in the absorbance (340 nm) was read after 10 min of incubation at 25 °C. All solutions were prepared in 50 mM buffer and concentrations of reagents in the final mixture were as follows: 1mM EDTA, 0.2 U glutathione reductase, 2 mM GSH, 0.04 U glutathione peroxidase, 1.5 mM H2O2 and 0.8 mM NADPH. Blank sample was prepared with buffer instead of the studied sample and background was measured (mixture containing studied sample and buffer only). One unit of enzyme activity was defined as nMol of NADPH consumed/min·mL sample, in comparison with nMol of NADPH consumed/min in blank (reagent) sample [76].

AChE = AChE (Homo sapiens, UniProt P22303); format: biochemical; conditions: sample 142.9 μg/mL in the reaction mixture
Experimental: Ellman’s colorimetric method was used with modifications described previously. Tested sample (10 μL) at concentration 5 mg/mL was mixed with 20 μL of AChE (or BChE) solution (0.28 U/mL) and completed after 5 min with 35 μL of ATChI (or BTCh) (1.5 mmol/L), 175 μL of 0.3 mmol/L DTNB (containing 10 mmol/L NaCl and 2 mmol/L MgCl2) and 110 μL with Tris-HCl buffer (50 mmol/L, pH 8.0). Samples containing 10 μL of Tris-HCl buffer instead of the studied sample were run in the same way (“blank” samples). The increase in the absorbance due to the spontaneous hydrolysis of the substrate was monitored using “blank” samples containing ATCh (or BTCh) and DTNB completed to 350 μL with Tris-HCl buffer. All samples were incubated at 22 °C (30 min; incubation time was determined after optimization experiments, details not shown), and the absorbance was measured (405 nm, 96-well microplate reader, Tecan Sunrise, Grödig, Austria). The “false-positive” effect of studied compounds was measured according to Rhee et al. with minor modifications, as described previously: after mixing of the substrate with the enzyme and buffer, the “false-positive” sample was left for incubation. Then, a studied sample and DTNB were added, followed by an immediate measurement of the absorbance.
Reference cholinesterase inhibitors were used for the calculations of results (eserine, neostigmine, magniflorine, rivastigmine and donepezil). For this purpose, for each compound, 16 dilutions in pure DMSO were prepared (2.57–41.14 μg/mL). These solutions (10 μL) were tested as described above and calibration curves were produced.
Each sample was analyzed in at least eight repeats, and all solutions used in a set of analyses were prepared in the same buffer. For calculations, the background of the sample (10 μL mixed with 340 μL of Tris buffer) was measured at 405 nm and subtracted during calculations. Then, the absorbance of the test sample was subtracted from the absorbance of the “blank” sample.

[2] = 243.9 μg/mL in the reaction mixture
[3] = pH 7.4, Pe (effective permeability, PAMPA-BBB)

Sequence of AChE (P22303 32-614): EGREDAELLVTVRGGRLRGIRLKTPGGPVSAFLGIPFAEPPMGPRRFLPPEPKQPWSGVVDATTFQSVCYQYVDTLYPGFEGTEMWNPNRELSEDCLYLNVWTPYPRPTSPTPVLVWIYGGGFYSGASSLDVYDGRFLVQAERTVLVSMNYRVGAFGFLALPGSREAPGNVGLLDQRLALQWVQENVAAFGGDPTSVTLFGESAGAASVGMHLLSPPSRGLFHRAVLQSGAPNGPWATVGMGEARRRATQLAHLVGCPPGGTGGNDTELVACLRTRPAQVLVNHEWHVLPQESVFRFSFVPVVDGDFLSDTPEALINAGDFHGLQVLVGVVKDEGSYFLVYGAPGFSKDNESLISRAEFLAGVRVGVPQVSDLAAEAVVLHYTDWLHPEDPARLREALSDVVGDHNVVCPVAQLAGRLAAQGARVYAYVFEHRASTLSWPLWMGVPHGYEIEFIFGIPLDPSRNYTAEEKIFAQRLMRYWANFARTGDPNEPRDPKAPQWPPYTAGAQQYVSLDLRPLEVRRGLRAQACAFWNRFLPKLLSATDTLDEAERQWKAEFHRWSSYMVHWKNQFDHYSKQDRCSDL

Row | SMILES | Papp at 1 h, 12.5 µg/mL (PAMPA-BBB permeability; pH 7.4, compound permeated from the acetone extract, 1 h, 37 °C, pH 7.4, ± SEM, n = 3, read-out: Pe × 10^−6 (cm/s) t = 1 h) | Papp at 12.5 µg/mL (PAMPA-BBB permeability; pH 7.4, from the extract or as a pure compound, bound stated, read-out: Pe (effective permeability, PAMPA-BBB)) | Papp at 1 h, 12.5 µg/mL (PAMPA-BBB permeability; pH 7.4, pure compound (PC), 1 h, 37 °C, pH 7.4, ± SEM, n = 3, read-out: Pe × 10^−6 (cm/s) t = 1 h) | GPx Inhibitory Activity (nMol Depleted NADPH/min Incubation) [1, 2] | inhibition at 243.9 µg/mL [1] | Equivalent Reference Concentration, Donepezil, AChE (AChE) | Equivalent Reference Concentration, Eserine, AChE (AChE) | Equivalent Reference Concentration, Magniflorine, AChE (AChE) | Equivalent Reference Concentration, Neostygmine, AChE (AChE) | Equivalent Reference Concentration, Rivastigmine, AChE (AChE) | Pe × 10^−6 (cm/s) t = 1 h (PAMPA-BBB permeability; 1 h, 12.5 µg/mL, pH 7.4) | Pe × 10^−6 (cm/s) t = 4 h (PAMPA-BBB permeability; 4 h, 12.5 µg/mL, pH 7.4) | Papp at 12.5 µg/mL (PAMPA-BBB permeability; [3]) | Papp at 1 h, 12.5 µg/mL (PAMPA-BBB permeability; pH 7.4, Pe × 10^−6 (cm/s) t = 1 h) | Papp at 4 h, 12.5 µg/mL (PAMPA-BBB permeability; pH 7.4, Pe × 10^−6 (cm/s) t = 4 h) | inhibition at 243.9 µg/mL [1, 2] | GPx Inhibition under Reaction Conditions (%) [1, 2]
1 | CC(=O)C1=C(O)C=C2Oc3c(C(C)=O)c(O)c(C)c(O)c3C2(C)C1=O (single isomer, unassigned; (-)) [(−)-Usnic acid, (−)-usnic acid] | 140 ± 7.3 ×10⁻⁶ cm/s | > 1.5 ×10⁻⁶ cm/s | 92.8 ± 6.3 ×10⁻⁶ cm/s | 27.3 ± 1.3 nMol Depleted NADPH/min Incubation | 13.7 ± 2.3% | - | - | - | - | - |  |  |  |  |  |  | 
2 | COc1cc(C)c(C(=O)Oc2cc(C)c(C(=O)O)c(O)c2)c(O)c1 [Evernic acid, evernic acid] |  |  |  | 39.9 ± 1.0 nMol Depleted NADPH/min Incubation |  | - | - | - | - | - | 5.0 ± 0.7 × 10^−6 cm/s | 7.2 ± 0.4 × 10^−6 cm/s | > 1.5 ×10⁻⁶ cm/s | 5.2 ± 0.8 ×10⁻⁶ cm/s | 8.6 ± 0.4 ×10⁻⁶ cm/s | 20 ± 2.1% | 
3 | Cc1cc(O)c(C=O)c2c1C(=O)Oc1c(CO)c(O)c3c(c1O2)C(O)OC3=O (centres unmarked) [Salazinic acid, salazinic acid] |  |  |  |  |  | - | - | - | - | - |  |  | < 0.5 ×10⁻⁶ cm/s |  |  |  | -

— article PMC8704315, “Lichen-Derived Compounds and Extracts as Biologically Active Substances with Anticancer and Neuroprotective Properties” (Pharmaceuticals, 2021)
